Among the data in patent US8828908B2, “Herbicidally active bicyclic 1,3-dione compounds” (Syngenta Limited, priority 2007, dated 2014) are pest or weed control values, retold here.

Assay type in all cases: in vivo
For test [1], the system named is Echinochloa crus-galli (ECHCG). In words: Example A post-emergence herbicidal glasshouse test. The settings on record: 312 h, evaluated after 13 days, 100=total damage to plant, 0=no damage. Here is the method:
(§1) Seeds of a variety of test species were sown in standard soil in pots. After cultivation for one day (pre-emergence) or after 8 days cultivation (post-emergence) under controlled conditions in a glasshouse (at 24/16° C., day/night; 14 hours light; 65% humidity), the plants were sprayed with an aqueous spray solution derived from the formulation of the technical active ingredient in acetone/water (50:50) solution containing 0.5% Tween 20 (polyoxyethelyene sorbitan monolaurate, CAS RN 9005-64-5). The test plants were then grown in a glasshouse under controlled conditions in a glasshouse (at 24/16° C., day/night; 14 hours light; 65% humidity) and watered twice daily. After 13 days for pre and post-emergence, the test was evaluated (100=total damage to plant; 0=no damage to plant).
(§2) Alopecurus myosuroides (ALOMY), Avena fatua (AVEFA), Setaria faberi (SETFA), Echinochloa crus-galli (ECHCG), Solanum nigrum (SOLNI) and Amaranthus retroflexus (AMARE)

The test system of test [2] is Setaria faberi (SETFA). The description is as above. The settings on record: 312 h, evaluated after 13 days, 100=total damage to plant, 0=no damage. Here is the method:
as §1, §2

Test [3] concerns Avena fatua (AVEFA). The test is described as above. The conditions noted are these: 312 h, evaluated after 13 days, 100=total damage to plant, 0=no damage. Here is the method:
as §1, §2

In test [4] the test system is Alopecurus myosuroides (ALOMY). Described as above. The conditions noted are these: 312 h, evaluated after 13 days, 100=total damage to plant, 0=no damage. The procedure: as §1, §2
For test [5], the system named is Amaranthus retroflexus (AMARE). The test is described as above. The conditions noted are these: 312 h, evaluated after 13 days, 100=total damage to plant, 0=no damage. Here is the method: as §1, §2
The subject of test [6] is Echinochloa crus-galli (ECHCG). In words: Example A pre-emergence herbicidal glasshouse test. The settings on record: 312 h, Rate 250 g/ha, evaluated after 13 days, 100=total damage to plant, 0=no damage to plant. Here is the method: as §1, §2
Test [7] concerns Setaria faberi (SETFA). In words: Example A pre-emergence herbicidal glasshouse test. The conditions noted are these: 312 h, Rate 250 g/ha, evaluated after 13 days, 100=total damage to plant, 0=no damage to plant. Here is the method:
as §1, §2

Test [8] has as its system Avena fatua (AVEFA). In words: Example A pre-emergence herbicidal glasshouse test. The settings on record: 312 h, Rate 250 g/ha, evaluated after 13 days, 100=total damage to plant, 0=no damage to plant. Here is the method: as §1, §2
In test [9] the test system is Alopecurus myosuroides (ALOMY). Nature of the test: Example A pre-emergence herbicidal glasshouse test. The settings on record: 312 h, Rate 250 g/ha, evaluated after 13 days, 100=total damage to plant, 0=no damage to plant. Here is the method: as §1, §2
Test [10] concerns Amaranthus retroflexus (AMARE). Nature of the test: Example A pre-emergence herbicidal glasshouse test. The settings on record: 312 h, Rate 250 g/ha, evaluated after 13 days, 100=total damage to plant, 0=no damage to plant. The procedure: as §1, §2

Molecules are shown by their SMILES.

Regarding `Cc1ccc(-c2ccc(C)c(C3=C(O)[C@H]4CC[C@H](C4)C3=O)c2)cc1` (single isomer, unassigned) [Compound T20], the pest or weed control (commonly the degree to which the test organism was suppressed or injured, in per cent) at 250 g/ha in [1] stood at 60%; in test [2], 50%; in [3], 0%; in test [4] it was 20%; in [5], 0%; in [6], 40%. Moreover, the pest or weed control at 250 g/ha was found to be 0% in test [7], 0% in [8], 10% in test [9] and 0% in [10].
With `CCc1ccc(-c2ccc(Cl)nc2)cc1C1=C(O)[C@H]2CC[C@H](C2)C1=O` (single isomer, unassigned) [Compound T78], the pest or weed control at 250 g/ha in test [1] amounted to 100%; in test [2], 100%; in test [3], 60%; in test [4], 70%; in test [5], 0%; in [6] it was 60%. The pest or weed control at 250 g/ha in test [7] is 90%; in [8], 30%; in test [9], 40%; in test [10], 0%.
As to `Cc1ccc(-c2cccc(Cl)c2F)cc1C1=C(O)[C@H]2CC[C@H](C2)C1=O` (single isomer, unassigned) [Compound T46], the pest or weed control at 250 g/ha in test [1], in test [2], in test [3], in [4], in [5] and in test [6] was 0% throughout. The pest or weed control at 250 g/ha in test [7], in test [8], in test [9] and in [10] was 0% each time.
As to `Cc1ccc(-c2cccc(Cl)c2C)cc1C1=C(O)[C@H]2CC[C@H](C2)C1=O` (single isomer, unassigned) [Compound T48], the pest or weed control at 250 g/ha in test [1] is 40%; in test [2], 40%; in test [3], 20%; in [4] it was 0%; in test [5], 0%; in test [6], 0%. Also, the pest or weed control at 250 g/ha in test [7], in test [8], in test [9] and in test [10] was 0% throughout.
As to `Cc1ccc(-c2ccc(F)c(F)c2)cc1C1=C(O)[C@H]2CC[C@H](C2)C1=O` (single isomer, unassigned) [Compound T9], the pest or weed control at 250 g/ha in test [1] was determined as 70%; in test [2], 80%; in [3] it was 40%; in [4], 10%; in test [5], 0%; in test [6] it was 0%. The pest or weed control at 250 g/ha in [7] came to 50%; in [8], 0%; in test [9], 0%; in [10] it was 0%.
Turning to `Cc1ccc(-c2cccc(C(F)(F)F)c2)cc1C1=C(O)[C@H]2CC[C@H](C2)C1=O` (single isomer, unassigned) [Compound T22], the pest or weed control at 250 g/ha in test [1] came out at 20%; in [2], 50%; in test [3], 0%; in test [4], 0%; in test [5] it was 0%; in test [6] it was 20%. Further, the pest or weed control at 250 g/ha was 10% in test [7], 0% in test [8], 0% in [9] and 0% in test [10].
Regarding `CCc1ccc(-c2cccc(Cl)c2)cc1C1=C(O)[C@H]2CC[C@H](C2)C1=O` (single isomer, unassigned) [Compound T38], the pest or weed control at 250 g/ha was determined as 70% in test [1]; 40% in test [2]; 0% in test [3]; 20% in [4]; 0% in test [5]; 60% in test [6]. For the same compound, the pest or weed control at 250 g/ha in test [7], in [8], in test [9] and in test [10] was 0% throughout.
With `CCc1ccc(-c2ccc(Cl)cc2F)cc1C1=C(O)[C@H]2C=C[C@H](CC2)C1=O` [Compound T57, 3-(4′-chloro-4-ethyl-2′-fluorobiphen-3-yl)bicyclo[3.2.2]non-6-ene-2,4-dione], the pest or weed control at 250 g/ha was found to be 100% in test [1]; 100% in test [2]; 40% in test [3]; 30% in test [4]; 0% in test [5]; 50% in [6]. In addition, the pest or weed control at 250 g/ha amounted to 90% in test [7], 0% in test [8], 0% in test [9] and 0% in [10].
For `COc1ccc(-c2ccc(Cl)cc2Cl)cc1C1=C(O)[C@H]2CC[C@H](C2)C1=O` [Compound T53], the pest or weed control at 250 g/ha in test [1] turned out to be 30%; in [2], 80%; in test [3] it was 0%; in [4] it was 0%; in [5] it was 0%; in test [6], 0%. For the same compound, the pest or weed control at 250 g/ha in [7], in test [8], in test [9] and in test [10] was 0% each time.
In the case of `CCc1ccc(-c2ccc(Cl)nc2C)cc1C1=C(O)[C@H]2CC[C@H](C2)C1=O` (single isomer, unassigned) [Compound T79], the pest or weed control at 250 g/ha in [1] turned out to be 90%; in test [2], 100%; in test [3], 20%; in test [4], 40%; in test [5] it was 0%; in test [6], 0%. Further, the pest or weed control at 250 g/ha in [7] was determined as 70%; in [8] it was 0%; in test [9] it was 0%; in [10] it was 0%.
Consider `Cc1cc(-c2ccccc2)ccc1C1=C(O)[C@H]2CC[C@H](C2)C1=O` (single isomer, unassigned) [Compound T58], for which the pest or weed control at 250 g/ha in [1] was determined as 70%; in [2], 100%; in test [3], 0%; in test [4], 60%; in test [5], 0%; in [6], 40%. Besides, the pest or weed control at 250 g/ha in [7] stood at 20%; in test [8] it was 0%; in test [9], 10%; in [10], 30%.
